# Test results taken from article PMC5325384, “Novel synthetic cyclic integrin αvβ3 binding peptide ALOS4: antitumor activity in mouse melanoma models” (Oncotarget, 2016).
# Where a SMILES comes first, the peptide text is derived from it. Bridges are numbered along the chain shown (N, C = ends). Where no end group is shown, it is not given here. The star is where a group is joined. FITC = O=C1OC2(c3ccc(O)cc3Oc3cc(O)ccc32)c2ccc(NC(=S)*)cc21; GABA = NCCCC(=O)O
# T1: integrin αvβ3 (Homo sapiens, UniProt P06756)
# T1 chain 1: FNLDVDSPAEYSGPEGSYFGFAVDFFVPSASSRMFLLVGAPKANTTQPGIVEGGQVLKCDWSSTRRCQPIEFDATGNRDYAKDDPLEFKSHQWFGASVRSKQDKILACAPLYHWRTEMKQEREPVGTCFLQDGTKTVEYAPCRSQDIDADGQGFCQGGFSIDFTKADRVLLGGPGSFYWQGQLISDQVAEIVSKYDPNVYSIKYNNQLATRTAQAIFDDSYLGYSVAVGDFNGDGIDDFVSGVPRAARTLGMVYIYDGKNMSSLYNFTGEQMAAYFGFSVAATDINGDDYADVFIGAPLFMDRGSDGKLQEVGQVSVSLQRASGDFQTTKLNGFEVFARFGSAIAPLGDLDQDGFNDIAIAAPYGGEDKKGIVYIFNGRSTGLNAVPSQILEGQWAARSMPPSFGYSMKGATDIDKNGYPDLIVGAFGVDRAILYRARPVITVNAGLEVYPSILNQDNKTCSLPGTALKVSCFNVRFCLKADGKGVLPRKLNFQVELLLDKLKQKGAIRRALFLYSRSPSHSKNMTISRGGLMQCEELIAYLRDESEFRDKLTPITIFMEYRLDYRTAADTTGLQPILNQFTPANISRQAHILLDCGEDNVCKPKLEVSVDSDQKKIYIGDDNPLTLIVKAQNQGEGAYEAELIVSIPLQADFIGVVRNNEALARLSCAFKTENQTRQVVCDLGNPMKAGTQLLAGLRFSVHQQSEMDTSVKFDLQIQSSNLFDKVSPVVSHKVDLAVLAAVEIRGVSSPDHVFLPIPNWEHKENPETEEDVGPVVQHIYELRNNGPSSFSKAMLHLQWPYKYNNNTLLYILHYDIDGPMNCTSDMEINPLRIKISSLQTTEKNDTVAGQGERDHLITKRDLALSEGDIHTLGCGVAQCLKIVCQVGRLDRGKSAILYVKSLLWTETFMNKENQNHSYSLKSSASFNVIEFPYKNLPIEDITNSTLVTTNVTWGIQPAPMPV
# T1 chain 2: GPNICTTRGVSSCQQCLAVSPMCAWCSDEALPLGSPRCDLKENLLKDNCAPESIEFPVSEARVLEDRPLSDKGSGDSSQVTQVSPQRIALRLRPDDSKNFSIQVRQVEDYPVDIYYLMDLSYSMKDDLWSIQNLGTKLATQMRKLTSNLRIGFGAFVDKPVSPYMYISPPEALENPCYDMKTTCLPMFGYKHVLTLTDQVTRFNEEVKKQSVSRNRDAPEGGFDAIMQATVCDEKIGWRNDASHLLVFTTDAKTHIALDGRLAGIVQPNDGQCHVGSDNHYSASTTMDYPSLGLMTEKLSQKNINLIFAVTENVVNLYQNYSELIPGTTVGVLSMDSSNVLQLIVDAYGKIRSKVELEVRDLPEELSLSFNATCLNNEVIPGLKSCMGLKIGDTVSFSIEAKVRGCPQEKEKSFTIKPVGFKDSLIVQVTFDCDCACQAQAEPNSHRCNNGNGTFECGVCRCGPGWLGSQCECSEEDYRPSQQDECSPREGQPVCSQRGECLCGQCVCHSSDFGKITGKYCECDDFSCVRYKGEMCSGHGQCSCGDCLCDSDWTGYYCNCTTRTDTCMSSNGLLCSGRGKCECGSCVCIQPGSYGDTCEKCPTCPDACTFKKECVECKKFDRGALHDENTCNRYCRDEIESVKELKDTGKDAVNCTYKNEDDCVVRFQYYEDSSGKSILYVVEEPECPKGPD
# Legend:
# [1] = system: B16F10 mouse melanoma cells; assay: Immunofluorescence microscopy of cell binding and uptake; format: cell-based; settings: 10 μM ALOS4-FITC, 37°C, confocal microscopy
# Method: Poly-L-lysine (1 h, 37°C; cat# P8920, Sigma-Aldrich) coated slides (cat# PEZGS0816, Merck) were washed 2x with PBS (pH 7.4), 1.5×10^4 B16F10 cells per well were seeded in RPMI (10% FCS) and allowed to incubate overnight (37°C, 5% CO2). ALOS4-FITC (10 μM) was added to slide wells up to 60 min (37°C, 5% CO2), then cells were fixed in paraformaldehyde (4%, 10 min). Following PBS washes (2x) and removal of excess buffer, cells were stained with a mounting medium containing DAPI (cat# H-1500, Vector Laboratories, Burlingame, CA). Slides were imaged by confocal microscopy.
# [2] = Weight of non-inoculated mice under daily treatment; format: in vivo, mouse; settings: 16-week old C57BL/6, 0.3 mg/kg i.p. daily for 28 days; data not shown
# integrin αvβ3 [3] = biological target: T1, integrin αvβ3; assay: fluorescence plate saturation binding assay
# integrin αvβ3 [4] = biological target: T1, integrin αvβ3; assay: fluorescence competition binding assay with ALOS4-FITC
molecule,measurement,setting,value
CC(C)C[C@@H]1NC(=O)[C@H](CO)NC(=O)CNC(=O)[C@H](C)NC(=O)[C@H](CO)NC(=O)[C@H](CO)NC(=O)[C@@H](NC(=O)CCCNC(=S)Nc2ccc3c(c2)C(=O)OC32c3ccc(O)cc3Oc3cc(O)ccc32)CSSC[C@@H](C(=O)O)NC(=O)[C@H](Cc2ccccc2)NC1=O [ALOS4-FITC] ({FITC-GABA}-CSSAGSLFC-OH; disulfide 1-9),"association with cells, 10 min",[1]; 10 min,rapidly adheres to the cell surface
same,"translocation into cells, 30 min",[1]; 30 min,appears to translocate quickly to the cell cytoplasm
same,"intracellular localization, 60 min",[1]; up to 60 min,a majority of ALOS4-FITC migrated to the nuclear envelope and/or surrounding endoplasmic reticular membranes
CC(C)C[C@@H]1NC(=O)[C@H](CO)NC(=O)CNC(=O)[C@H](C)NC(=O)[C@H](CO)NC(=O)[C@H](CO)NC(=O)[C@@H](N)CSSC[C@@H](C(=O)O)NC(=O)[C@H](Cc2ccccc2)NC1=O [ALOS4] (H-CSSAGSLFC-OH; disulfide 1-9),"effect on animal weight, non-inoculated mice",[2],did not have any effect on animal weight
{FITC-ε‑Acp}-CSSAGSLFC (disulfide 1-9 (inferred)) [ALOS4-FITC],Kd,integrin αvβ3 [3],192 nM
CSSAGSLFC (disulfide 1-9 (inferred)) [ALOS4],Kd,integrin αvβ3 [4],2550 nM
